#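 These data come from cells grown in 96-well plates and exposed to compound for 48 hours at five concentrations. GI50 = concentration required for 50% inhibition of growth. TGI: concentration producing complete growth inhibition.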
# Assays:
# Test in all cases: DTP human tumour cell line panel, 48 h
# K-562 leukemia = test system: K-562 leukemia
# HOP-62 NSCLC = test system: HOP-62 NSCLC
# OVCAR-3 ovarian = test system: OVCAR-3 ovarian
# MCF7 breast = test system: MCF7 breast
# SW-620 colon = test system: SW-620 colon
# EKVX NSCLC = test system: EKVX NSCLC
# NCI/ADR-RES ovarian = test system: NCI/ADR-RES ovarian
# ACHN renal = test system: ACHN renal
# CCRF-CEM leukemia = test system: CCRF-CEM leukemia
# OVCAR-4 ovarian = test system: OVCAR-4 ovarian
SMILES,TGI (K-562 leukemia) [µM],TGI (HOP-62 NSCLC) [µM],TGI (OVCAR-3 ovarian) [µM],TGI (MCF7 breast) [µM],TGI (SW-620 colon) [µM],TGI (EKVX NSCLC) [µM],TGI (NCI/ADR-RES ovarian) [µM],TGI (ACHN renal) [µM],TGI (CCRF-CEM leukemia) [µM],TGI (OVCAR-4 ovarian) [µM],GI50 (K-562 leukemia) [µM],GI50 (HOP-62 NSCLC) [µM],GI50 (OVCAR-3 ovarian) [µM],GI50 (MCF7 breast) [µM],GI50 (SW-620 colon) [µM],GI50 (EKVX NSCLC) [µM],GI50 (NCI/ADR-RES ovarian) [µM],GI50 (ACHN renal) [µM],GI50 (CCRF-CEM leukemia) [µM],GI50 (OVCAR-4 ovarian) [µM]
O=C1Nc2ccccc2C1Cc1ccc([N+](=O)[O-])cc1 (stereo not given),> 100,> 100,> 100,> 100,> 100,> 100,> 100,> 100,> 100,> 100,–,–,–,–,–,–,–,–,–,–
COc1ccc(C(=O)/C=C/c2c(C(F)(F)F)nc3sccn23)cc1OC,> 100,43,6.14,34.9,> 100,> 100,10.6,> 100,> 100,> 100,2.25,6,2.12,0.766,1.49,4.43,1.88,5.1,2.33,4.08
CCc1cccc2c3c(sc12)C(c1ccc(Cl)cc1)C(C#N)=C(N)O3 (stereo not given),> 100,11.1,2.67,4.66,12.2,14.7,2.24,14.3,21.4,17.3,0.391,0.623,0.384,0.334,0.45,1.08,0.349,0.622,0.391,1.7
C/C([O-])=C1\Cc2ccccc2C1=O.C/C([O-])=C1\Cc2ccccc2C1=O.CC[O-].CC[O-].[Ti+4],> 78.6,50.3,> 100,> 100,> 84.9,> 100,> 100,> 92.2,> 70.2,> 84.5,20.3,13,24,22,24.8,29.6,23.4,19.1,13.9,27.2
O=C(CCCCCCSc1nc(-c2ccccc2)cc(-c2ccccc2)n1)NO,12,8.06,9.26,15.9,12.8,17.2,6.15,3.16,5.36,16.7,1.58,1.93,2.15,1.31,1.49,3.96,0.699,1.45,0.535,3.05
Cc1ccc2c(c1C)-c1c(ccc(C)c1C)C(=O)C2=O,1.1,9.32,1.1,0.809,3.23,6.54,0.384,3.91,0.991,0.554,–,–,–,–,–,–,–,–,–,–
CC(CN1CCN(C)CC1)CN1c2ccccc2Sc2ccc(C(F)(F)F)cc21 (stereo not given),4.21,3.17,4.16,3.16,3.67,5.38,4.94,3.27,6.74,4.4,1.76,1.71,2.04,1.64,1.83,2.1,1.94,1.67,2.6,2.16
C=CCNCCCN1C(=O)c2ccc3c4c(ccc(c24)C1=O)C(=O)N(CCCNCC=C)C3=O,1.48,1.72,0.889,0.336,1.51,1.09,12.6,4.38,3.78,0.307,0.296,0.372,0.298,0.157,0.265,0.295,1.74,0.268,0.349,0.143
O=C1CC(c2ccc3c(c2)OCO3)Nc2cc3c(cc21)OCO3 (stereo not given),> 100,> 100,1.45,> 100,> 100,72.6,83.4,> 100,> 100,> 100,0.358,0.523,0.344,0.364,0.357,1.93,0.372,2.05,0.363,1.04
C=C1CC2(C[C@@H](c3ccccc3)O[C@@H](c3ccccc3)C2)OC1=O (stereo not given in full),7.51,28.1,6.07,5.73,3.95,25.7,15.4,9.01,5.34,13.5,–,–,–,–,–,–,–,–,–,–

# Source: PubChem BioAssay (NCI)
